From PubChem BioAssay (NCI)
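Method: 48-hour compound exposure of cells in 96-well plates, five concentrations, linear interpolation of endpoints. At the TGI there is no net growth.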

Key:
Experiment in all cases: NCI-60 cell line screen, 48 h
786-0 renal = system: 786-0 renal
A498 renal = system: A498 renal
A549 NSCLC = system: A549 NSCLC
ACHN renal = system: ACHN renal
CAKI-1 renal = system: CAKI-1 renal
CCRF-CEM leukemia = system: CCRF-CEM leukemia
COLO 205 colon = system: COLO 205 colon
DLD-1 colon = system: DLD-1 colon
DMS 114 small cell lung = system: DMS 114 small cell lung
DMS 273 small cell lung = system: DMS 273 small cell lung
EKVX NSCLC = system: EKVX NSCLC
HCC-2998 colon = system: HCC-2998 colon
HCT-116 colon = system: HCT-116 colon
HCT-15 colon = system: HCT-15 colon
HOP-62 NSCLC = system: HOP-62 NSCLC
HOP-92 NSCLC = system: HOP-92 NSCLC
HT29 colon = system: HT29 colon
IGROV1 ovarian = system: IGROV1 ovarian
K-562 leukemia = system: K-562 leukemia
KM12 colon = system: KM12 colon
KM20L2 colon = system: KM20L2 colon
LOX IMVI melanoma = system: LOX IMVI melanoma
LXFL 529 NSCLC = system: LXFL 529 NSCLC
M14 melanoma = system: M14 melanoma
M19-MEL melanoma = system: M19-MEL melanoma
MALME-3M melanoma = system: MALME-3M melanoma
MOLT-4 leukemia = system: MOLT-4 leukemia
NCI-H226 lung = system: NCI-H226 lung
NCI-H23 lung = system: NCI-H23 lung
NCI-H460 lung = system: NCI-H460 lung
NCI-H522 lung = system: NCI-H522 lung
OVCAR-3 ovarian = system: OVCAR-3 ovarian
OVCAR-4 ovarian = system: OVCAR-4 ovarian
OVCAR-5 ovarian = system: OVCAR-5 ovarian
OVCAR-8 ovarian = system: OVCAR-8 ovarian
RPMI-8226 leukemia = system: RPMI-8226 leukemia
RXF 393 renal = system: RXF 393 renal
SF-268 CNS = system: SF-268 CNS
SF-295 CNS = system: SF-295 CNS
SF-539 CNS = system: SF-539 CNS
SK-MEL-2 melanoma = system: SK-MEL-2 melanoma
SK-MEL-28 melanoma = system: SK-MEL-28 melanoma
SK-MEL-5 melanoma = system: SK-MEL-5 melanoma
SN12C renal = system: SN12C renal
SNB-19 CNS = system: SNB-19 CNS
SNB-75 CNS = system: SNB-75 CNS
SNB-78 CNS = system: SNB-78 CNS
SW-620 colon = system: SW-620 colon
TK-10 renal = system: TK-10 renal
U251 CNS = system: U251 CNS
UACC-257 melanoma = system: UACC-257 melanoma
UACC-62 melanoma = system: UACC-62 melanoma
UO-31 renal = system: UO-31 renal
XF 498 CNS = system: XF 498 CNS
HL-60(TB) leukemia = system: HL-60(TB) leukemia
SK-OV-3 ovarian = system: SK-OV-3 ovarian
SR leukemia = system: SR leukemia

`O=C(NC(=Nc1ccccc1)SCCSC(=Nc1ccccc1)NC(=O)c1ccccc1)c1ccccc1` was tested, and the TGI (786-0 renal) was greater than 100 µM, the TGI (A498 renal) was greater than 100 µM and the TGI (A549 NSCLC) was greater than 100 µM. For the same compound, the TGI (ACHN renal) was greater than 100 µM, the TGI (CAKI-1 renal) was greater than 100 µM and the TGI (CCRF-CEM leukemia) was greater than 100 µM. It also gave a TGI (COLO 205 colon) greater than 100 µM, a TGI (DLD-1 colon) greater than 100 µM and a TGI (DMS 114 small cell lung) greater than 100 µM. The TGI (DMS 273 small cell lung) was greater than 100 µM, the TGI (EKVX NSCLC) was greater than 100 µM and the TGI (HCC-2998 colon) was greater than 100 µM. For the same compound, the TGI (HCT-116 colon) was greater than 100 µM, the TGI (HCT-15 colon) was greater than 100 µM and the TGI (HOP-62 NSCLC) was greater than 100 µM. It also gave a TGI (HOP-92 NSCLC) of 58.7 µM, a TGI (HT29 colon) greater than 100 µM and a TGI (IGROV1 ovarian) greater than 100 µM. For the same compound, the TGI (K-562 leukemia) was greater than 100 µM, the TGI (KM12 colon) was greater than 100 µM and the TGI (KM20L2 colon) was greater than 100 µM. For the same compound, the TGI (LOX IMVI melanoma) was greater than 100 µM, the TGI (LXFL 529 NSCLC) was greater than 100 µM and the TGI (M14 melanoma) was greater than 100 µM. The TGI (M19-MEL melanoma) was greater than 100 µM, the TGI (MALME-3M melanoma) was greater than 100 µM and the TGI (MOLT-4 leukemia) was greater than 100 µM. It also gave a TGI (NCI-H226 lung) greater than 100 µM, a TGI (NCI-H23 lung) greater than 100 µM and a TGI (NCI-H460 lung) greater than 100 µM. It also gave a TGI (NCI-H522 lung) of 73 µM, a TGI (OVCAR-3 ovarian) greater than 100 µM and a TGI (OVCAR-4 ovarian) greater than 100 µM. The TGI (OVCAR-5 ovarian) was greater than 100 µM, the TGI (OVCAR-8 ovarian) was greater than 100 µM and the TGI (RPMI-8226 leukemia) was greater than 100 µM. For the same compound, the TGI (RXF 393 renal) was 95.6 µM, the TGI (SF-268 CNS) was greater than 100 µM and the TGI (SF-295 CNS) was greater than 100 µM. It also gave a TGI (SF-539 CNS) greater than 100 µM, a TGI (SK-MEL-2 melanoma) greater than 100 µM and a TGI (SK-MEL-28 melanoma) greater than 100 µM. For the same compound, the TGI (SK-MEL-5 melanoma) was greater than 100 µM, the TGI (SN12C renal) was greater than 100 µM and the TGI (SNB-19 CNS) was greater than 100 µM. It also gave a TGI (SNB-75 CNS) greater than 100 µM, a TGI (SNB-78 CNS) greater than 100 µM and a TGI (SW-620 colon) greater than 100 µM. It also gave a TGI (TK-10 renal) greater than 100 µM, a TGI (U251 CNS) greater than 100 µM and a TGI (UACC-257 melanoma) greater than 100 µM. It also gave a TGI (UACC-62 melanoma) greater than 100 µM, a TGI (UO-31 renal) of 88.2 µM and a TGI (XF 498 CNS) greater than 100 µM.

In the case of `N#CN1CCC2CC(=O)CCC2C1` (configuration not stated), the TGI (786-0 renal) is reported as greater than 100 µM, the TGI (A549 NSCLC) is reported as greater than 100 µM and the TGI (ACHN renal) is reported as greater than 100 µM. For the same compound, the TGI (CAKI-1 renal) was greater than 100 µM, the TGI (DMS 114 small cell lung) was greater than 100 µM and the TGI (HCC-2998 colon) was greater than 100 µM. For the same compound, the TGI (HCT-116 colon) was greater than 100 µM, the TGI (HCT-15 colon) was greater than 100 µM and the TGI (HL-60(TB) leukemia) was greater than 100 µM. For the same compound, the TGI (HOP-92 NSCLC) was greater than 100 µM, the TGI (IGROV1 ovarian) was greater than 100 µM and the TGI (K-562 leukemia) was greater than 100 µM. For the same compound, the TGI (KM12 colon) was greater than 100 µM, the TGI (KM20L2 colon) was greater than 100 µM and the TGI (LOX IMVI melanoma) was greater than 100 µM. It also gave a TGI (M14 melanoma) greater than 100 µM, a TGI (MALME-3M melanoma) greater than 100 µM and a TGI (MOLT-4 leukemia) greater than 100 µM. For the same compound, the TGI (NCI-H226 lung) was greater than 100 µM, the TGI (NCI-H23 lung) was greater than 100 µM and the TGI (OVCAR-3 ovarian) was greater than 100 µM. The TGI (OVCAR-4 ovarian) was greater than 100 µM, the TGI (OVCAR-5 ovarian) was greater than 100 µM and the TGI (RXF 393 renal) was greater than 100 µM. It also gave a TGI (SF-268 CNS) greater than 100 µM, a TGI (SK-MEL-2 melanoma) greater than 100 µM and a TGI (SK-MEL-28 melanoma) greater than 100 µM. It also gave a TGI (SK-OV-3 ovarian) greater than 100 µM, a TGI (SN12C renal) greater than 100 µM and a TGI (SNB-19 CNS) greater than 100 µM. The TGI (SNB-75 CNS) was greater than 100 µM, the TGI (SNB-78 CNS) was greater than 100 µM and the TGI (SR leukemia) was greater than 100 µM. For the same compound, the TGI (SW-620 colon) was greater than 100 µM, the TGI (TK-10 renal) was greater than 100 µM and the TGI (U251 CNS) was greater than 100 µM. The TGI (UACC-62 melanoma) was greater than 100 µM and the TGI (UO-31 renal) was greater than 100 µM.
